Data: article PMC7138139 (Molecular and cellular neurosciences, 2020)

What was measured:
[1] = target: T1, Olfr937 (Mus musculus, UniProt Q9EQB4); assay: Glosensor cAMP luminescence dose-response, Hana3A cells; assay type: cell-based; details: antagonist of whiskey lactone response; 316 uM
T1 sequence (Q9EQB4 1-311): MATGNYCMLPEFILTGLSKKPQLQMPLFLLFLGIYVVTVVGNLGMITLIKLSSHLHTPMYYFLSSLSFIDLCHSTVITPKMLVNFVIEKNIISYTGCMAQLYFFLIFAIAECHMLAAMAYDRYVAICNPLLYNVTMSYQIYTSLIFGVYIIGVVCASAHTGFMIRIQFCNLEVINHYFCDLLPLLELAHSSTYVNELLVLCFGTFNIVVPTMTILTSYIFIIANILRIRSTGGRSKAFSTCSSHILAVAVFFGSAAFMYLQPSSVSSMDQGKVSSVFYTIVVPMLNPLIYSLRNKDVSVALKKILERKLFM

[2] = target: T2, Olfr774 (Mus musculus, UniProt Q7TRI5); assay: as above; assay type: cell-based; details: agonist
T2 sequence (Q7TRI5 1-312): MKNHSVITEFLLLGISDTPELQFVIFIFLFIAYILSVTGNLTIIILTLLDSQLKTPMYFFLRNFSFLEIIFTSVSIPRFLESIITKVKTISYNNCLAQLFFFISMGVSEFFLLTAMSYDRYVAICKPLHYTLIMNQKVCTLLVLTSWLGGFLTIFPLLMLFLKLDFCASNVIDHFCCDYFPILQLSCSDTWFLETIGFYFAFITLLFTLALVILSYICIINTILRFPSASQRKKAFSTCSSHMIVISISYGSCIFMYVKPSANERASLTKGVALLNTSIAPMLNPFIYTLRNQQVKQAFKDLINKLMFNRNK

Compound	Glosensor cAMP luminescence dose-response, Hana3A cells [1]	Glosensor cAMP luminescence dose-response, Hana3A cells [2]
CC(C)(C)c1ccc(CCC=O)cc1 [bourgeonal, 3-(4-tert-butylphenyl)propanal]	bourgeonal and lyral also suppressed Olfr937 responses to whiskey lactone, with bourgeonal being more effective	–
CCCCCCCCCCC=O [undecanal]	–	In vitro testing confirmed that Olfr774 responded to undecanal but not to bourgeonal
